# Assay: Solubility of the organic compound in nonpolar / polar solvent (added to 1.0 mL solvent to saturation point)
# Assay type: physicochemical
# Text: The raw material(s) is not particularly limited as long as the raw material(s) contains the organic compound, and the raw materials may contain the organic compound and an additive. The additive is not particularly limited as long as an object of a present inventive subject matter is not interfered with, and may be a known additive. The mixing ratio of the additive in the raw materials is not particularly limited, however, preferably in a range of 0.00001 mol % to 30 mol %, and further preferably in a range of 0.0001 mol % to 10 mol %. […] According to a present inventive subject matter, the organic compound is added into the polar solvent that is 1.0 mL to saturation point, and the remaining organic compound in the polar solvent was measured by deducting the remaining amount of organic compound in the polar solvent from the total amount of added organic compound in the polar solvent. […] According to a present inventive subject matter, the organic compound is added into the nonpolar solvent that is 1.0 mL to saturation point, and the remaining organic compound in the nonpolar solvent was measured by deducting the remaining amount of organic compound in the nonpolar solvent from the total amount of added organic compound in the nonpolar solvent. […]
smiles,measurement,setting,value
c12c3c4c5c1c1c6c7c2c2c8c3c3c9c4c4c%10c5c5c1c1c6c6c%11c7c2c2c7c8c3c3c8c9c4c4c9c%10c5c5c1c1c6c6c%11c2c2c7c3c3c8c4c4c9c5c1c1c6c2c3c41 [C60 fullerene],dissolution into the solvent,"Comparative Example 4, only 2-Pyrrolidone used as the solvent of the raw-material solution",hardly dissolved
same,solubility to mesitylene,"nonpolar solvent mesitylene, temperature of 25° C.",1500 µg/mL
